According to PubChem BioAssay (NCI):
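Cultured in 96-well plates, cells were exposed to test compound for 48 hours across five concentrations. At the TGI there is no net growth.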

Experiments:
Test in all cases: NCI anticancer screen, dose series, 48 h
DMS 273 small cell lung = system: DMS 273 small cell lung
DMS 114 small cell lung = system: DMS 114 small cell lung
RXF-631 renal = system: RXF-631 renal
SNB-78 CNS = system: SNB-78 CNS
DLD-1 colon = system: DLD-1 colon

Measured: TGI

Cc1c(C(=O)O)oc2ccc([N+](=O)[O-])cc12
> 100 µM: all assays above
